Results on 21 molecules are retold here after patent US12692254B2, “Benzimidazole inhibitors of PAD enzymes” (BRISTOL-MYERS SQUIBB COMPANY, priority 2018, dated 2026).

The target in the test is human PAD4 (hPAD4) (Homo sapiens, UniProt Q9UM07). The test can be described thus: RFMS human PAD4 functional assay (rapid-fire mass spectrum). Type of test: biochemical. As to conditions: 5 nM hPAD4 enzyme, 250 μM BAEE, 50 μM Calcium; 30 min preincubation, 90 min reaction at 37° C. In a few lines: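 PAD4 (10 nM) preincubated 30 min with compound (top final 50 μM), then BAEE substrate added in pH 7.5 HEPES buffer with DTT, 50 μM calcium, TPEN; 90 min at 37° C. After TCA quench, citrulline derivatized with phenyl glyoxal (4 mM final, 30 min, 37° C) and quantified by RapidFire MS against internal standard.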
human PAD4 (hPAD4), sequence (Q9UM07 whole entry): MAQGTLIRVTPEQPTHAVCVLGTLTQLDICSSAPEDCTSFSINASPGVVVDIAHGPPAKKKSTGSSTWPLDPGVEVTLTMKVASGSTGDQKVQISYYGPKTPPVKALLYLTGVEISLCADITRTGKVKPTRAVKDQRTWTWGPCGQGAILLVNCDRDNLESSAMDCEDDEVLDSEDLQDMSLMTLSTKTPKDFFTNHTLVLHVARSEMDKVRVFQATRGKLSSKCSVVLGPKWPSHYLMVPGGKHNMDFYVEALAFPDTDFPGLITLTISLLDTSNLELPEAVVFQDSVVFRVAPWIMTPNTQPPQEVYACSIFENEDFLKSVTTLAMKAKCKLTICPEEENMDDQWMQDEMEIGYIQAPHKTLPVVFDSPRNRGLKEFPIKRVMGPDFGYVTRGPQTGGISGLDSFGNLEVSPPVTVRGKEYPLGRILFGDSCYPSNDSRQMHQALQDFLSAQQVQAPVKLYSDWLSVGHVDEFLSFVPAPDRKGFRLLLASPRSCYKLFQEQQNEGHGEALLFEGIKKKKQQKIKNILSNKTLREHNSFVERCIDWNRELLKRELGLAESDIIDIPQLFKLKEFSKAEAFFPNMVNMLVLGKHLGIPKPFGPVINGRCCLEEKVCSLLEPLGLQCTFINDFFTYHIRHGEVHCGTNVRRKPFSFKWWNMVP

As usually defined, the IC50 is the midpoint of a concentration-inhibition curve. On to `COc1ncccc1-n1cc(Cn2c(-c3cc4cccnc4n3CC3CC3)nc3cc(C(=O)N4C[C@H](N)C[C@@H](F)C4)cc(OC)c32)cn1` [Example 343, (3R,5R)-1-{2-[1-(cyclopropylmethyl)-1H-pyrrolo[2,3-b]pyridin-2-yl]-7-methoxy-1-{[1-(2-methoxypyridin-3-yl)-1H-pyrazol-4-yl]methyl}-1H-1,3-benzodiazole-5-carbonyl}-5-fluoropiperidin-3-amine], for which the IC50 was 116 nM.

With `COc1cc(C(=O)N2C[C@H]3CC[C@@H]2[C@@H]3N)cc2nc(-c3cc4cccnc4n3CC3CC3)n(CC3CN(S(=O)(=O)C4CC4)C3)c12` [Example 332, (1R,4R,7R)-2-(1-{[1-(cyclopropanesulfonyl)azetidin-3-yl]methyl}-2-[1-(cyclopropylmethyl)-1H-pyrrolo[2,3-b]pyridin-2-yl]-7-methoxy-1H-1,3-benzodiazole-5-carbonyl)-2-azabicyclo[2.2.1]heptan-7-amine], the half-inhibitory concentration (IC50) was 219 nM. On to `COc1cc(C(=O)N2C[C@H]3CC[C@@H]2[C@@H]3N)cc2nc(-c3cccn3CC3CC3)n(CC3CN(c4ccnc(C#N)n4)C3)c12` [Example 311, 4-[3-({5-[(1R,4R,7R)-7-amino-2-azabicyclo[2.2.1]heptane-2-carbonyl]-2-[1-(cyclopropylmethyl)-1H-pyrrol-2-yl]-7-methoxy-1H-1,3-benzodiazol-1-yl}methyl)azetidin-1-yl]pyrimidine-2-carbonitrile], for which the IC50 was found to be 134 nM.

`COc1nccc(N2CC(n3c(-c4cc5cccnc5n4CC4CC4)nc4cc(C(=O)N5C[C@H]6CC[C@@H]5[C@@H]6N)cc(OC)c43)C2)n1` [Example 71, (1R,4R,7R)-2-{2-[1-(cyclopropylmethyl)-1H-pyrrolo[2,3-b]pyridin-2-yl]-7-methoxy-1-[1-(2-methoxypyrimidin-4-yl)azetidin-3-yl]-1H-1,3-benzodiazole-5-carbonyl}-2-azabicyclo[2.2.1]heptan-7-amine]: the IC50 came to 111 nM. In the case of `COc1cc(C(=O)N2C[C@H]3CC[C@@H]2[C@@H]3N)cc2nc(-c3cc4ccccc4n3CC3CC3)n(CC3CN(c4cncc(C#N)n4)C3)c12` [Example 65, 6-[3-({5-[(1R,4R,7R)-7-amino-2-azabicyclo[2.2.1]heptane-2-carbonyl]-2-[1-(cyclopropylmethyl)-1H-indol-2-yl]-7-methoxy-1H-1,3-benzodiazol-1-yl}methyl)azetidin-1-yl]pyrazine-2-carbonitrile], the IC50 was 28 nM. Take `COc1nccc(N2CC(Cn3c(-c4cc5cccnc5n4CC4CC4)nc4cc(C(=O)N5C[C@H]6CC[C@@H]5[C@@H]6N)cc(OC)c43)C2)n1` [Example 20, (1R,4R,7R)-2-{2-[1-(cyclopropylmethyl)-1H-pyrrolo[2,3-b]pyridin-2-yl]-7-methoxy-1-{[1-(2-methoxypyrimidin-4-yl)azetidin-3-yl]methyl}-1H-1,3-benzodiazole-5-carbonyl}-2-azabicyclo[2.2.1]heptan-7-amine]: the IC50 is 57 nM. In the case of `COc1cc(C(=O)N2CC3CCC2[C@@H]3N)cc2nc(-c3cc4cccnc4n3CC3CC3)n(CC3CN(C(=O)[C@@H]4C[C@H]4C)C3)c12` (stereo partly drawn) [Example 128, (1R,4R,7R)-2-{2-[1-(cyclopropylmethyl)-1H-pyrrolo[2,3-b]pyridin-2-yl]-7-methoxy-1-({1-[(1R,2R)-2-methylcyclopropanecarbonyl]aze-tidin-3-yl}methyl)-1H-1,3-benzodiazole-5-carbonyl}-2-azabicyclo[2.2.1]heptan-7-amine], the IC50 was 109 nM. As for `COc1cc(C(=O)N2C[C@H]3CC[C@@H]2[C@@H]3N)cc2nc(-c3cc4ccccc4n3C)n(CC3CN(C(=O)c4ccccc4)C3)c12` [Example 181, (1R,4R,7R)-2-{1-[(1-benzoylazetidin-3-yl)methyl]-7-methoxy-2-(1-methyl-1H-indol-2-yl)-1H-1,3-benzodiazole-5-carbonyl}-2-azabicyclo[2.2.1]heptan-7-amine], the figure is 101 nM. On to `COc1cc(C(=O)N2CC3CCC2[C@@H]3N)cc2nc(-c3cc4cccnc4n3CC3CC3)n([C@H]3C[C@H](NC(C)=O)C3)c12` (stereo partly drawn) [Example 302, N-[(1r,3r)-3-{5-[(1R,4R,7R)-7-amino-2-azabicyclo[2.2.1]heptane-2-carbonyl]-2-[1-(cyclopropylmethyl)-1H-pyrrolo[2,3-b]pyridin-2-yl]-7-methoxy-1H-1,3-benzodiazol-1-yl)cyclobutyl]acetamide], for which the IC50 was determined as 1210 nM. For `COc1cc(C(=O)N2C[C@H]3CC[C@@H]2[C@@H]3N)cc2nc(-c3cc4cccnc4n3CC3CC3)n(CC3CN(c4cccc(C#N)n4)C3)c12` [Example 21, 6-[3-({5-[(1R,4R,7R)-7-amino-2-azabicyclo[2.2.1]heptane-2-carbonyl]-2-[1-(cyclopropylmethyl)-1H-pyrrolo[2,3-b]pyridin-2-yl]-7-methoxy-1H-1,3-benzodiazol-1-yl}methyl)azetidin-1-yl]pyridine-2-carbonitrile], the IC50 was 57 nM. To `COc1cc(C(=O)N2CC3CCC2[C@@H]3N)cc2nc(-c3cc4ccccc4n3CC3CC3)n(Cc3cnn(-c4ccc[n+]([O-])c4)c3)c12` (stereo partly drawn) [Example 396, 3-[4-({5-[(7R)-7-amino-2-azabicyclo[2.2.1]heptane-2-carbonyl]-2-[1-(cyclopropylmethyl)-1H-indol-2-yl]-7-methoxy-1H-1,3-benzodiazol-1-yl}methyl)-1H-pyrazol-1-yl]pyridin-1-ium-1-olate] belongs 51 nM; to `COc1cc(C(=O)N2CC3CCC2[C@@H]3N)cc2nc(-c3cc4cccnc4n3CC3CC3)n(Cc3cnn(-c4cc(F)cnc4O)c3)c12` (stereo partly drawn) [Example 380, 3-[4-({5-[(7R)-7-amino-2-azabicyclo[2.2.1]heptane-2-carbonyl]-2-[1-(cyclopropylmethyl)-1H-pyrrolo[2,3-b]pyridin-2-yl]-7-methoxy-1H-1,3-benzodiazol-1-yl)methyl}-1H-pyrazol-1-yl]-5-fluoropyridin-2-ol], 37 nM. As for `COc1cc(C(=O)N2C[C@H](N)C[C@@H](F)C2)cc2nc(-c3cc4ccccc4n3CC3CC3)n(CC3CN(C(=O)c4ccc(C#N)cc4)C3)c12` [Example 90, 4-[3-({5-[(3R,5R)-3-amino-5-fluoropiperidine-1-carbonyl]-2-[1-(cyclopropylmethyl)-1H-indol-2-yl]-7-methoxy-1H-1,3-benzodiazol-1-yl}methyl)azetidine-1-carbonyl]benzonitrile], the figure is 28 nM. As for `COc1cc(C(=O)N2CC3CCC2[C@@H]3N)cc2nc(-c3cc4ccc(Br)cc4n3CC3CC3)n(Cc3cnn(C)c3)c12` (stereo partly drawn) [Example 522, (7R)-2-{2-[6-bromo-1-(cyclopropylmethyl)-1H-indol-2-yl]-7-methoxy-1-[(1-methyl-1H-pyrazol-4-yl)methyl]-1H-1,3-benzodiazole-5-carbonyl}-2-azabicyclo[2.2.1]heptan-7-amine], the figure is 23 nM; as for “6-[(3S)-3-({5-[(1R,4R,7R,)-7- amino-2- azabicyc1o[2.2.1]heptane-2- carbonyl]-7-methoxy-2-{1- methyl-1H-pyrrolo[2,3- b]pyridin-2-yl}-1H-1,3- benzodiazol-1- yl}methyl)pyrrolidin-1- yl]pyrazine-2-carbonitrile [Example 235]”, 366 nM. As for `COc1cc(C(=O)N2C[C@H]3CC[C@@H]2[C@@H]3N)cc2nc(-c3cc4cc(Cl)ccc4n3C)n(CC3CN(c4ncccn4)C3)c12` [Example 62, (1R,4R,7R)-2-[2-(5-chloro-1-methyl-1H-indol-2-yl)-7-methoxy-1-{[1-(pyrimidin-2-yl)azetidin-3-yl]methyl}-1H-1,3-benzodiazole-5-carbonyl]-2-azabicyclo[2.2.1]heptan-7-amine], the IC50 was 192 nM. Turning to `N[C@@H]1[C@@H]2CC[C@H]1N(C(=O)c1cc(Cl)c3c(c1)nc(-c1cc4ccccc4n1CC1CC1)n3CC1CN(C(=O)c3ccncc3)C1)C2` [Example 93, (3-((5-((1R,4R,7R)-7-amino-2-azabicyclo[2.2.1]heptane-2-carbonyl)-7-chloro-2-(1-(cyclopropylmethyl)-1H-indol-2-yl)-1H-benzo[d]imidazol-1-yl)methyl)azetidin-1-yl)(pyridin-4-yl)methanone], the IC50 was found to be 16 nM. For `C#CC(=O)N1CC(Cn2c(-c3cc4cccnc4n3CC3CC3)nc3cc(C(=O)N4CC5CCC4[C@@H]5N)cc(OC)c32)C1` (stereo partly drawn) [Example 133, 1-[3-({5-[(1R,4R,7R)-7-amino-2-azabicyclo[2.2.1]heptane-2-carbonyl]-2-[1-(cyclopropylmethyl)-1H-pyrrolo[2,3-b]pyridin-2-yl]-7-methoxy-1H-1,3-benzodiazol-1-yl}methyl)azetidin-1-yl]prop-2-yl-1-one], the IC50 was 165 nM. As for `COc1cc(C(=O)N2C[C@H]3CC[C@@H]2[C@@H]3N)cc2nc(-c3cc4cccnc4n3CC3CC3)n(CC3CN(C(=O)C4CC4)C3)c12` [Example 123, (1R,4R,7R)-2-{1-[(1-cyclopropanecarbonylazetidin-3-yl)methyl]-2-[1-(cyclopropylmethyl)-1H-pyrrolo[2,3-b]pyridin-2-yl]-7-methoxy-1H-1,3-benzodiazole-5-carbonyl}-2-azabicyclo[2.2.1]heptan-7-amine], the figure is 100 nM. As for `COc1cc(C(=O)N2C[C@H]3CC[C@@H]2[C@@H]3N)cc2nc(-c3cc4cccnc4n3CC3CC3)n(CC3CN(C(=O)C4CCCC4)C3)c12` [Example 113, (1R,4R,7R)-2-{1-[(1-cyclopentanecarbonylazetidin-3-yl)methyl]-2-[1-(cyclopropylmethyl)-1H-pyrrolo[2,3-b]pyridin-2-yl]-7-methoxy-1H-1,3-benzodiazole-5-carbonyl]-2-azabicyclo[2.2.1]heptan-7-amine], the figure is 52 nM; as for `COc1cc(C(=O)N2C[C@H]3CC[C@@H]2[C@@H]3N)cc2nc(-c3cc4ccccc4n3CC3CC3)n(Cc3csc(C)n3)c12` [Example 269, (1R,4R,7R)-2-{2-[1-(cyclopropylmethyl)-1H-indol-2-yl]-7-methoxy-1-[(2-methyl-1,3-thiazol-4-yl)methyl]-1H-1,3-benzodiazole-5-carbonyl}-2-azabicyclo[2.2.1]heptan-7-amine], 127 nM.
